“Also recorded” adds a separate entry of the source.
Key:
[1] = tested on: CFTR activity at the ocular surface; experiment: Ocular surface potential difference (PD) in living mice; assay type: in vivo, mouse; details: wild-type mice; for change in ocular surface PD, in words: 1-10 μM
Description: (§1) Open-circuit transepithelial PD were measured continuously in anesthetized mice in response to serial perfusions of different solutions over the ocular surface, as described (21). Mice were anesthetized with Avertin (2,2,2-tribromoethanol, 125 mg/kg intraperitoneal, Sigma-Aldrich, St. Louis, Mo., USA), and core temperature was maintained at 37° C. using a heating pad. Eyes were oriented with the cornea and conjunctiva facing upward and exposed by retracting the eyelid with cross-action forceps. Solutions were isosmolar (320±10 mOsM; compositions provided in ref. 21) and contained 10μ[…] Qindomethacin to prevent CFTR activation by prostaglandins. The ocular surface was perfused at 6 mL/min through plastic tubing using a multireservoir gravity pinch-valve system (ALA Scientific, Westbury, N.Y., USA) and variable-flow peristaltic pump (medium flow model; Fisher Scientific, Fair Lawn, N.J., USA). A probe catheter was fixed 1 mm above the cornea using a micropositioner and a suction cannula was positioned 3 mm from the orbit. The measuring electrode was in contact to the perfusion catheter and connected to a high-impedance voltmeter (IsoMilivolt Meter; WPI). The reference electrode was grounded via a winged 21-gauge needle filled with isosmolar saline, and inserted subcutaneously in the abdomen. Measuring and reference electrodes consisted of Ag/AgCl with 3 M KCl agar bridges.
An open-circuit potential difference (PD) method developed in our lab was used to evaluate compound activity at the ocular surface in vivo, as depicted in FIG. 3A (21). Cl^− channel function was quantified by measuring PD during continuous perfusion of the ocular surface with a series of solutions that imposed a transepithelial Cl^− gradient and contained various channel agonists and/or inhibitors. The ocular surface was first perfused with isosmolar saline to record the baseline PD. Amiloride was then added to the perfusate, followed by exchange to a low Cl^− solution in which Cl^− with an impermeant anion, gluconate. These maneuvers allow for direct visualization of CFTR activation in response to addition of candidate CFTR activators.
as §1, with “Ocular surface potential difference measurements. Open-circuit” for “Open-circuit”, “indomethacin” for “Qindomethacin”, “Measuring and reference electrodes consisted of Ag/AgCl with 3 M KCl agar bridges.” left out

mice = experiment: Tear secretion / tear volume in mice (phenol red thread); assay type: in vivo, mouse; details: for duration of increased tear secretion / increase in tear fluid secretion / tear secretion, in words: single topical dose, wild-type mice; for tear secretion / tear volume in CF mice: CF mice lacking functional CFTR
Description: (§2) To measure unstimulated tear production, phenol red threads (Zone-Quick, Oasis Medical, Glendora, Calif., USA) were placed for 10 s in the lateral canthi of isofluorane-anesthetized mice using jewelers' forceps. Tear volume was measured as the length of thread wetting, as visualized under a dissecting microscope. Serial measurements were used to evaluate compound pharmacodynamics after application of 2-μL drops of compound formulations (50-100 μM compound in PBS containing 0.5% polysorbate and 0.5% DMSO) comparing to vehicle.
as §2, with “Tear secretion. To” for “To”, “2-[…]L” for “2-μL”
Tear volume. Tear volume was measured using phenol red threads (Zone-Quick, Oasis Medical, Glendora, Calif.) as described. Threads were placed for 10 s in the lateral canthi of isofluorane-anesthetized mice using jewelers' forceps. Tear volume was determined from the length of thread wetting as visualized under a dissecting microscope. Serial measurements were done to evaluate compound pharmacodynamics after topical application of a single, 2.5-μL drop of ophthalmic formulation containing 0-100 μM of 1 or 12 in Ringer's solution with 0.3% carboxymethylcellulose (high viscosity, VWR, Radnor, Pa.), 0.015% benzalkonium chloride preservative, and 1% DMSO. Both eyes in each mouse received the same treatment to control for potential contralateral effects of a given treatment.

Compound | change in ocular surface PD, in words [1] | duration of increased tear secretion (mice) | increase in tear fluid secretion (mice) | hyperpolarization in ocular surface potential difference [1] [mV] | tear secretion / tear volume in CF mice (mice) | tear secretion, in words (mice) | duration of sustained effect on tear volume (mice; 25 pmol, single dose) [h] | duration of sustained increase in tear volume (mice; 100 μM (250 pmol), single dose) [h] | time of return of tear volume to baseline (mice; 100 μM (250 pmol), single dose) [h] | time of maximal tear volume (mice; doses down to 25 pmol) [h] | duration of sustained in vivo efficacy (mice; mice) | lowest dose with similar activity on tear volume (mice; single-dose dose-response) [pmol]
Nc1ccc([N+](=O)[O-])cc1-c1nc2ccccc2n(Cc2ccccc2)c1=O [CFTRact-J027, 3-(2-amino-5-nitrophenyl)-1-benzylquinoxalin-2(1H)-one] | large hyperpolarizations | at least four | approximately two-fold | – | – | – | – | – | – | – | – | –
CCN(CC)c1nc(Nc2ccccc2)nc(OC(C(F)(F)F)C(F)(F)F)n1 [CFTRact-K089, N,N-Diethyl-6-[(1,1,1,3,3,3-hexafluoropropan-2-yl)oxy]-N′-phenyl-1,3,5-triazine-2,4-diamine] | large hyperpolarizations | four and at least four | approximately two-fold | ~8.5 | no effect | doubled basal tear secretion | – | – | – | – | – | –
CC(C)(C)c1cc(C(C)(C)C)c(NC(=O)c2c[nH]c3ccccc3c2=O)cc1O [VX-770, reference compound] | minimal changes in ocular surface PD | – | – | – | – | little tear secretion | – | – | – | – | – | –
CNc1nc(Nc2ccccc2)nc(OCC(F)(F)C(F)F)n1 [compound 12, N-methyl-N′-phenyl-6-(2,2,3,3-tetrafluoropropoxy)-1,3,5-triazine-2,4-diamine] | – | – | – | – | without effect; also recorded: did not increase tear volume | – | 8 | 8 | 12 to 24 | 1 to 3 | at least 8 hours | 25
